We go through two molecules from paper PMC7411652 (Sensors (Basel, Switzerland), 2020).

Read-outs that look alike come from different tables or passages of the source.

The target of one series is T1, CYP1A1 enzyme (Homo sapiens, UniProt P04798).
T1 construct: expressed in transfected cells; host or cells: Saccharomyces cerevisiae W303-1A derived strains yRD+ (+CPR) and yRD-::Bax (-CPR)
T1 sequence (P04798 1-512): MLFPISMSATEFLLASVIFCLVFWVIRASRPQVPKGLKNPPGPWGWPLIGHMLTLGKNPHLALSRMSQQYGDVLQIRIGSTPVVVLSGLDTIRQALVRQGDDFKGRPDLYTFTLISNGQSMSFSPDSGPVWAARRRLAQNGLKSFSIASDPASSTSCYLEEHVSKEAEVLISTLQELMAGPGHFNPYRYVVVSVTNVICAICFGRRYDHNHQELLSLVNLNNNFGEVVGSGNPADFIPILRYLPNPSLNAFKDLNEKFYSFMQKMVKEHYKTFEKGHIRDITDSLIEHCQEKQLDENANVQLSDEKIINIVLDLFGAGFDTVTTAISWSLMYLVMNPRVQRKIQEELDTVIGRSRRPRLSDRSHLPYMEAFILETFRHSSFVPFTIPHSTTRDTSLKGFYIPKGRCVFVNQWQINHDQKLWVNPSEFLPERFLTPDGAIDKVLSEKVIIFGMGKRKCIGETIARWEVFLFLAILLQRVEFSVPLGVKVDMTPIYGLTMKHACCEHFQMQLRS
As to the kind of experiment: Live-cell IC50 determination, CYP1A1 expressed in yeast cells, 7-ethoxyresorufin (7-ER) substrate. The following applies: 1 × 10^7 cells, 10 min incubation. It is filed as cell-based. The protocol: The IC50 values were calculated using the GraphPad Prism software.

The test system of a further series is CYP1A1 Supersomes. The following applies: read-out: IC50 for inhibition of CYP1A1 Supersomes; insect cell-derived microsomes, Corning-Gentest; cited from earlier work.
The subject of a further series is CYP1A2 Supersomes. Also on record: method as in PMID 19359406. The following applies: insect cell-derived microsomes, Corning-Gentest, 10 min incubation with microsomal enzyme; read-out: IC50 for inhibition of CYP1A2 Supersomes; cited from earlier work.

Broadly, the IC50 is the concentration that gives 50% inhibition. Regarding `O=c1cc(-c2ccccc2)oc2c1ccc1ccccc12` [ANF, Alpha-naphthoflavone], the IC50 on CYP1A1 enzyme (live yeast strain yRD+ (+CPR), read-out: IC50 for inhibition of CYP1A1 in yRD+ cells) was 20.8 nM; on CYP1A1 enzyme (live yeast strain yRD−:: Bax (–CPR), read-out: IC50 for inhibition of CYP1A1 in yRD- cells), 21.3 nM; in the series on CYP1A1 Supersomes, 18 nM.

With `Cc1nc2c([nH]1)c(=O)n(C)c(=O)n2Cc1ccco1` [Furafylline], the IC50 in the series with CYP1A2 Supersomes is 6100 nM.
